1 compound from EP4624482A1, “PYRIMIDOPYRIMIDINONE COMPOUND AND PHARMACEUTICAL COMPOSITION COMPRISING SAME” (Axceso Biopharma Co., Ltd., priority 2022, dated 2024) can be followed below.

For this experiment, the system named is C57BL/6 mice. The experiment in a line: Survival in sepsis induced by cecal ligation and puncture (CLP). The format is in vivo. The settings on record: 100 ng/mouse (5 µg/kg) intravenously at 6 and 16 hours after CLP. As to the method:
C57BL/6 mice aged 7-8 weeks were purchased from Jabio (Suwon, Gyeonggi-do) and sepsis was induced by cecal ligation and puncture (CLP).
Specifically, after anesthesia using 150 mg/kg of ketamine and 17.5 mg/kg of rompun, an abdominal incision of 1-2 cm was made to expose the cecum to induce sepsis. The cecum was ligated with 6-0 silk sutures at the distal end of the ileocecal valve, and a puncture was made with an 18-gauge needle. The perforated cecum was gently squeezed to push out 1-2 cm of feces, and the cecum was then retracted back into the abdominal cavity. The abdomen was then closed and pre-warmed normal saline (2.5 mL/100 g body weight) was injected into the mouse abdominal cavity immediately after the procedure. 6 and 16 hours after CLP treatment, the compound of formula (1a-1) was dissolved in phosphate buffered saline (PBS) and injected intravenously at 100 ng/mouse (5 µg/kg), and survival was examined for 10 days. […] In addition, as a drug-negative control, survival was examined in mice that received only PBS after CLP treatment.
For comparison, we also examined the survival of a control group treated with fingolimod (FTY720), a known S1P modulator, instead of the compound of formula (1a-1) under the same conditions.

As for `CCCCCCCCCCCCCC[C@H]1OP(=O)(O)O[C@H]1[C@@H](N)CO.Cl` [formula (1a-1), (4S,5R)-4-((S)-1-amino-2-hydroxyethyl)-2-hydroxy-5-tetradecyl-1,3,2-dioxaphosphoran-2-oxide hydrochloride], the “deaths after 10 days” value is on record as “no deaths”. For the same compound, the survival entry (for 10 days) is on record as “more than 80%”.
